Tests used:
Type in all cases: in vivo
Lolium multiflorum Lam. = assay: Test Example 4: herbicidal effect by soil treatment (symbol K); details: application herbicide amount 320 g/ha
Method in brief: (§1)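 Seeds were sown in sterilized diluvial soil, covered with about 1.5 cm of soil, and the soil surface was sprayed with a water-diluted emulsion of the compound at a predetermined rate. Plants grew in a greenhouse at 25° C. to 30° C.; effects were scored visually 3 weeks after application.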

Amaranthus retroflexus [1] = assay: Test Example 4: herbicidal effect by soil treatment (symbol N); details: application herbicide amount 320 g/ha
Method in brief: as §1

rice plant = assay: Test Example 5: effect on crop by foliage application, plastic box (symbol b); details: 320 g/ha, 3 weeks after application
Method in brief: (§2)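 Diluvial soil, sterilized and boxed (21 × 13 × 7 cm), received spot-sown seed covered by about 1.5 cm soil; plants were then greenhouse-grown at 25–30° C.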

Galium spurium [2] = assay: Test Example 4: herbicidal effect by soil treatment (symbol Q); details: application herbicide amount 320 g/ha
Method in brief: as §1

Setaria viridis [3] = assay: Test Example 4: herbicidal effect by soil treatment (symbol G); details: application herbicide amount 320 g/ha
Method in brief: as §1

Avena fatua = assay: Test Example 4: herbicidal effect by soil treatment (symbol I); details: application herbicide amount 320 g/ha
Method in brief: as §1

Scirpus juncoides = assay: Test Example 1: herbicidal activity, application before weed generation in submerged conditions (symbol B); details: application herbicide amount 320 g/ha
Method in brief: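 Application before weed emergence: an aqueous dilution of the emulsion formulation was poured onto the surface of 4 cm-deep floodwater on the day of sowing. Effect was judged after 3 weeks (greenhouse, 25–30 °C).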

wheat [4] = assay: Test Example 4: effect on crop by soil treatment (symbol e); details: application herbicide amount 320 g/ha
Method in brief: (§3)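 Plants are raised in a greenhouse (25° C. to 30° C.) from spot-sown seed, which sits under about 1.5 cm of sterilized diluvial soil in a box shared with weed species.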

Alopecurus myosuroides [5] = assay: Test Example 4: herbicidal effect by soil treatment (symbol J); details: application herbicide amount 320 g/ha
Method in brief: as §1

Abutilon theophrasti = assay: Test Example 4: herbicidal effect by soil treatment (symbol M); details: application herbicide amount 320 g/ha
Method in brief: as §1

soybean [6] = assay: Test Example 5: effect on crop by foliage application, plastic box (symbol d); details: 320 g/ha, 3 weeks after application
Method in brief: as §2

Amaranthus retroflexus [7] = assay: Test Example 5: herbicidal effect by foliage application, plastic box (symbol N); details: 320 g/ha, 3 weeks after application
Method in brief: (§4)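 Emulsion formulation, diluted with water to the intended rate, was applied uniformly to leaves by small sprayer. Recipients were 14-day greenhouse-grown seedlings (25° C. to 30° C.). Assessment followed at 3 weeks.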

soybean [8] = assay: Test Example 4: effect on crop by soil treatment (symbol d); details: application herbicide amount 320 g/ha
Method in brief: as §3

[9] = tested on: Echinochloa crus-galli var. crus-galli; assay: Test Example 5: herbicidal effect by foliage application, plastic box (symbol H); details: 320 g/ha, 3 weeks after application
Method in brief: as §4

wheat [10] = assay: Test Example 5: effect on crop by foliage application, plastic box (symbol e); details: 320 g/ha, 3 weeks after application
Method in brief: as §2

Alopecurus myosuroides [11] = assay: Test Example 5: herbicidal effect by foliage application, plastic box (symbol J); details: 320 g/ha, 3 weeks after application
Method in brief: as §4

rice = assay: Test Example 4: effect on crop by soil treatment (symbol b); details: application herbicide amount 320 g/ha
Method in brief: as §3

Setaria viridis [12] = assay: Test Example 5: herbicidal effect by foliage application, plastic box (symbol G); details: 320 g/ha, 3 weeks after application
Method in brief: as §4

corn = assay: Test Example 4: effect on crop by soil treatment (symbol c); details: application herbicide amount 320 g/ha
Method in brief: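 Crop seed is sown in spots together with several weed species in a box of sterilized diluvial soil. It is covered by about 1.5 cm of soil and kept in a greenhouse held between 25° C. and 30° C.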

Digitaria ciliaris = assay: Test Example 5: herbicidal effect by foliage application, plastic box (symbol F); details: 320 g/ha, 3 weeks after application
Method in brief: as §4

Stellaria media = assay: Test Example 4: herbicidal effect by soil treatment (symbol P); details: application herbicide amount 320 g/ha
Method in brief: as §1

Galium spurium [13] = assay: Test Example 5: herbicidal effect by foliage application, plastic box (symbol Q); details: 320 g/ha, 3 weeks after application
Method in brief: as §4

Row | SMILES | Herbicidal effect grade, K: Lolium multiflorum Lam. (Lolium multiflorum Lam.) | Herbicidal effect grade, N: Amaranthus retroflexus (Amaranthus retroflexus [1]) | Herbicidal effect grade, G: Setaria viridis (Setaria viridis [3]) | Herbicidal effect grade, I: Avena fatua (Avena fatua) | Herbicidal effect grade, B: Scirpus juncoides (Scirpus juncoides) | Effect on crop grade, e: wheat (wheat [4]) | Herbicidal effect grade, J: Alopecurus myosuroides (Alopecurus myosuroides [5]) | Herbicidal effect grade, M: Abutilon theophrasti (Abutilon theophrasti) | Effect on crop grade, d: soybean (soybean [8]) | Effect on crop grade, b: directly sowed rice plant (rice) | Effect on crop grade, c: corn (corn) | b: directly sowed rice plant, effect on crop grade (rice plant) | d: soybean, effect on crop grade (soybean [6]) | N: Amaranthus retroflexus, herbicidal effect grade (Amaranthus retroflexus [7]) | H: Echinochloa crus-galli var. crus-galli, herbicidal effect grade [9] | Herbicidal effect grade, P: Stellaria media (Stellaria media) | e: wheat, effect on crop grade (wheat [10]) | Q: Galium spurium, herbicidal effect grade (Galium spurium [13]) | J: Alopecurus myosuroides, herbicidal effect grade (Alopecurus myosuroides [11]) | G: Setaria viridis, herbicidal effect grade (Setaria viridis [12]) | also measured
1 | CCc1cc(Br)cc(C)c1C1=C(O)CC(C(C(C)=O)C(=O)OC)C1=O (centres unmarked) [7-001] | 5 (Herbicidal ratio of 90% or more (almost completely withered)) | 0 (Herbicidal ratio of 5% or lower (almost no effect)) | 4 (Herbicidal ratio of 70% or higher and lower than 90%) | 3 (Herbicidal ratio of 40% or higher and lower than 70%) | 0 (Herbicidal ratio of 5% or lower (almost no effect)) | 0 (Herbicidal ratio of 5% or lower (almost no effect)) | 0 (Herbicidal ratio of 5% or lower (almost no effect)) | 0 (Herbicidal ratio of 5% or lower (almost no effect)) | 0 (Herbicidal ratio of 5% or lower (almost no effect)) | 4 (Herbicidal ratio of 70% or higher and lower than 90%) | 0 (Herbicidal ratio of 5% or lower (almost no effect)) |  |  |  |  |  |  |  |  |  | b: directly sowed rice plant, effect on crop (criteria of Test Example 1) (rice plant): 1 (Herbicidal ratio of 5% or higher and lower than 20%); Herbicidal effect grade, Q: Galium spurium (Galium spurium [2]): 0 (Herbicidal ratio of 5% or lower (almost no effect)); d: soybean, effect on crop (criteria of Test Example 1) (soybean [6]): 0 (Herbicidal ratio of 5% or lower (almost no effect)); N: Amaranthus retroflexus, herbicidal effect (criteria of Test Example 1) (Amaranthus retroflexus [7]): 0 (Herbicidal ratio of 5% or lower (almost no effect)); H: Echinochloa crus-galli var. crus-galli, herbicidal effect (criteria of Test Example 1) [9]: 4 (Herbicidal ratio of 70% or higher and lower than 90%); e: wheat, effect on crop (criteria of Test Example 1) (wheat [10]): 0 (Herbicidal ratio of 5% or lower (almost no effect)); J: Alopecurus myosuroides, herbicidal effect (criteria of Test Example 1) (Alopecurus myosuroides [11]): 3 (Herbicidal ratio of 40% or higher and lower than 70%); G: Setaria viridis, herbicidal effect (criteria of Test Example 1) (Setaria viridis [12]): 3 (Herbicidal ratio of 40% or higher and lower than 70%); F: Digitaria ciliaris, herbicidal effect (criteria of Test Example 1) (Digitaria ciliaris): 5 (Herbicidal ratio of 90% or more (almost completely withered))
2 | CC(=O)C1CC(O)=C(c2c(C)cc(C)cc2C)C1=O (centres unmarked) [8-001] | 0 (Herbicidal ratio of 5% or lower (almost no effect)) | 0 (Herbicidal ratio of 5% or lower (almost no effect)) | 0 (Herbicidal ratio of 5% or lower (almost no effect)) | 0 (Herbicidal ratio of 5% or lower (almost no effect)) | 0 (Herbicidal ratio of 5% or lower (almost no effect)) | 0 (Herbicidal ratio of 5% or lower (almost no effect)) | 0 (Herbicidal ratio of 5% or lower (almost no effect)) | 0 (Herbicidal ratio of 5% or lower (almost no effect)) | 0 (Herbicidal ratio of 5% or lower (almost no effect)) | 0 (Herbicidal ratio of 5% or lower (almost no effect)) | 0 (Herbicidal ratio of 5% or lower (almost no effect)) | 2 (Herbicidal ratio of 20% or higher and lower than 40%) | 0 (Herbicidal ratio of 5% or lower (almost no effect)) | 0 (Herbicidal ratio of 5% or lower (almost no effect)) | 1 (Herbicidal ratio of 5% or higher and lower than 20%) | 0 (Herbicidal ratio of 5% or lower (almost no effect)) | 0 (Herbicidal ratio of 5% or lower (almost no effect)) | 0 (Herbicidal ratio of 5% or lower (almost no effect)) | 0 (Herbicidal ratio of 5% or lower (almost no effect)) | 1 (Herbicidal ratio of 5% or higher and lower than 20%) | F: Digitaria ciliaris, herbicidal effect grade (Digitaria ciliaris): 1 (Herbicidal ratio of 5% or higher and lower than 20%)
3 | CON=C(C)C(=NOC)C1CC(O)=C(c2c(C)cc(C)cc2C)C1=O (centres unmarked) [8-003] | 0 (Herbicidal ratio of 5% or lower (almost no effect)) | 0 (Herbicidal ratio of 5% or lower (almost no effect)) | 0 (Herbicidal ratio of 5% or lower (almost no effect)) | 0 (Herbicidal ratio of 5% or lower (almost no effect)) | 0 (Herbicidal ratio of 5% or lower (almost no effect)) | 0 (Herbicidal ratio of 5% or lower (almost no effect)) | 0 (Herbicidal ratio of 5% or lower (almost no effect)) | 0 (Herbicidal ratio of 5% or lower (almost no effect)) | 0 (Herbicidal ratio of 5% or lower (almost no effect)) | 0 (Herbicidal ratio of 5% or lower (almost no effect)) | 0 (Herbicidal ratio of 5% or lower (almost no effect)) | 0 (Herbicidal ratio of 5% or lower (almost no effect)) | 0 (Herbicidal ratio of 5% or lower (almost no effect)) | 0 (Herbicidal ratio of 5% or lower (almost no effect)) | 0 (Herbicidal ratio of 5% or lower (almost no effect)) | 0 (Herbicidal ratio of 5% or lower (almost no effect)) | 0 (Herbicidal ratio of 5% or lower (almost no effect)) | 0 (Herbicidal ratio of 5% or lower (almost no effect)) | 0 (Herbicidal ratio of 5% or lower (almost no effect)) | 0 (Herbicidal ratio of 5% or lower (almost no effect)) | F: Digitaria ciliaris, herbicidal effect grade (Digitaria ciliaris): 0 (Herbicidal ratio of 5% or lower (almost no effect))

From US11000033B2, “Ketone or oxime compound, and herbicide” (NISSAN CHEMICAL CORPORATION, priority 2014, dated 2021)
